Measurements taken from paper doi:10.1101/2022.08.24.505199v2 (biorxiv, 2025).

Legend:
[1] = biological target: NKA α1 purified from pig kidney (outer medulla) (Sus scrofa, UniProt P05024); experiment: SPR; type: binding
Mouse NKA α3β1 = Mouse NKA α3β1 (Mus musculus, UniProt Q6PIC6); experiment: NKA ATPase activity inhibition, dose response; type: biochemical

Kd [1]: 4.2 µM | IC50 (Mouse NKA α3β1): 18.6 µM
Compound: C=Cc1cccc2c1N(C)Cc1cc3c(cc1-2)OCO3 [HLY72]
